# Experimental data published in ChEMBL document CHEMBL3120118, “Evaluation of 1,2,5-thiadiazoles as modulators of M₁/M₅ muscarinic receptor subtypes” (Bioorg Med Chem, 2014).
# The source made the active and inactive calls. No cut-off for these calls is given here.
# Assays:
# [1] = molecular target: T1, Muscarinic acetylcholine receptor M5 (Homo sapiens) (UniProt P08912); assay: Stimulation of human muscarinic M5 receptor expressed in mouse A9 L cells at 1 to 100 uM after 1 hr by topcount analysis; type: cell-based; details: A9L
# T1 sequence (whole entry): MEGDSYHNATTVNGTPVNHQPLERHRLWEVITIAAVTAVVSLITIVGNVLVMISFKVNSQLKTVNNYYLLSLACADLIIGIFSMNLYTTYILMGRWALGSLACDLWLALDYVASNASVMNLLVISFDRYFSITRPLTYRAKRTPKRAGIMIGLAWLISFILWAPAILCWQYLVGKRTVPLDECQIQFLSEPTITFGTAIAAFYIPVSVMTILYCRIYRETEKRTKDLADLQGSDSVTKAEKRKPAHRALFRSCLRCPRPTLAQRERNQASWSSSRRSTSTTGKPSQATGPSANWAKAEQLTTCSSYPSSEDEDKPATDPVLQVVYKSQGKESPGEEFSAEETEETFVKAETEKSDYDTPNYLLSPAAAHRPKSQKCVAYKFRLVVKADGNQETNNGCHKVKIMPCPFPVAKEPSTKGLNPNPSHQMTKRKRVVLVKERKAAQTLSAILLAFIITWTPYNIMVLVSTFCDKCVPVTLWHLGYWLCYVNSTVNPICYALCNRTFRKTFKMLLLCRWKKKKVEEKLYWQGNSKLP
# [2] = molecular target: T2, Muscarinic acetylcholine receptor M1 (Homo sapiens) (UniProt P11229); assay: Modulation of human muscarinic M1 receptor expressed in mouse A9 L cells assessed as effect on carbachol-induced phosphoinositide metabolism at 1 to 100 uM after 1 hr by topcount analysis; type: cell-based; details: A9L
# T2 sequence (whole entry): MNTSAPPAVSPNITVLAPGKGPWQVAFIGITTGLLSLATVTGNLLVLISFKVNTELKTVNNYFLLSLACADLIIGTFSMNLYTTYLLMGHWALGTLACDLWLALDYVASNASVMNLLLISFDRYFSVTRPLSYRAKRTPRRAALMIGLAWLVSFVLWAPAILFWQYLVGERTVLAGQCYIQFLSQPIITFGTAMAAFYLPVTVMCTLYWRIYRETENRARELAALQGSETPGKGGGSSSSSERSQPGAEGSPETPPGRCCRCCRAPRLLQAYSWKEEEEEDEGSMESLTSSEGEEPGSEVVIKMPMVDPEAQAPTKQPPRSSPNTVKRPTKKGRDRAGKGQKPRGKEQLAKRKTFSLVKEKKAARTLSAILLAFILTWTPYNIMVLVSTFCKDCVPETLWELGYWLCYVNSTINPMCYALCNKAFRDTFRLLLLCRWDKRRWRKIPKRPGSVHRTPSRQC
# [3] = molecular target: T2, Muscarinic acetylcholine receptor M1 (Homo sapiens); assay: Stimulation of human muscarinic M1 receptor expressed in mouse A9 L cells at 1 to 100 uM after 1 hr by topcount analysis; type: cell-based; details: A9L
# [4] = molecular target: T1, Muscarinic acetylcholine receptor M5 (Homo sapiens); assay: Modulation of human muscarinic M5 receptor expressed in mouse A9 L cells assessed as effect on carbachol-induced phosphoinositide metabolism at 1 to 100 uM after 1 hr by topcount analysis; type: cell-based; details: A9L
# [5] = Solubility of the compound in 50% DMSO; type: physicochemical
# [6] = molecular target: T2, Muscarinic acetylcholine receptor M1 (Homo sapiens); assay: Modulation of human muscarinic M1 receptor expressed in mouse A9 L cells assessed as effect on carbachol-induced phosphoinositide metabolism at 10 to 300 uM by Schild plot analysis; type: cell-based; details: A9L
# [7] = molecular target: T1, Muscarinic acetylcholine receptor M5 (Homo sapiens); assay: Modulation of human muscarinic M5 receptor expressed in mouse A9 L cells assessed as competitive inhibition of carbachol-induced phosphoinositide metabolism by Schild plot analysis; type: cell-based; details: A9L
# [8] = molecular target: T1, Muscarinic acetylcholine receptor M5 (Homo sapiens); assay: Modulation of human muscarinic M5 receptor expressed in mouse A9 L cells assessed as inhibition of carbachol-induced phosphoinositide metabolism at 1 to 100 uM after 1 hr by topcount analysis; type: cell-based; details: A9L
# [9] = molecular target: T2, Muscarinic acetylcholine receptor M1 (Homo sapiens); assay: Modulation of human muscarinic M1 receptor expressed in mouse A9 L cells assessed as effect on carbachol-induced phosphoinositide metabolism at 1 uM by Schild plot analysis; type: cell-based; details: A9L
# [10] = molecular target: T1, Muscarinic acetylcholine receptor M5 (Homo sapiens); assay: Modulation of human muscarinic M5 receptor expressed in mouse A9 L cells assessed as inhibition of carbachol-induced phosphoinositide metabolism at 100 uM after 1 hr by topcount analysis; type: cell-based; details: A9L
# [11] = molecular target: T2, Muscarinic acetylcholine receptor M1 (Homo sapiens); assay: Modulation of human muscarinic M1 receptor expressed in mouse A9 L cells assessed as inhibition of carbachol-induced phosphoinositide metabolism at 100 uM after 1 hr by topcount analysis; type: cell-based; details: A9L
Activity [1],Activity [2],Activity [3],Activity [4],solubility [5],SMILES,other results
inactive,inactive,inactive,inactive,,COc1nsnc1OCCO,
,,,,Insoluble,COc1nsnc1OCCOCCOCc1ccccc1,
,,,,Insoluble,COc1nsnc1OCCOCCOCCOc1nsnc1OC,
,,,,Insoluble,COc1nsnc1OCCOCCOCCOCCOc1nsnc1OC,
inactive,inactive,inactive,,,COc1nsnc1OCCN(C)C,Activity [6]: Active; inhibition [7]: Dose-dependent effect; inhibition [8]: Active; Activity [9]: inactive
inactive,inactive,inactive,inactive,,COc1nsnc1OCCOCCOCCOCCO,
inactive,,inactive,,,COc1nsnc1OCC[N+](C)(C)C,inhibition [10]: Active; inhibition [11]: Active
inactive,inactive,inactive,inactive,,COc1nsnc1OCCOCCOCCO,
